Holding throughout (experiment): NCI tumour cell line growth inhibition, 48 h
The test system of assay [1] is 786-0.
In assay [2] the test system is CAKI-1.
The subject of assay [3] is CCRF-CEM.
Assay [4] concerns HCT-116.
In assay [5] the test system is HL-60.
Assay [6] deals with HOP-62.
Assay [7] has as its system HOP-92.
The test system of assay [8] is IGROV-1.
In assay [9] the test system is K562.
The subject of assay [10] is LOX IMVI.
For assay [11], the system named is OVCAR-3.
For assay [12], the system named is OVCAR-5.
The subject of assay [13] is RPMI-8226.
Assay [14] has as its system SF-539.
In assay [15] the test system is SK-MEL-28.
The subject of assay [16] is SN12C.
Assay [17] concerns U-251.
Assay [18] has as its system ACHN.

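Grown in 96-well plates, cells were treated for 48 hours with each compound at five concentrations. Insufficient inhibition: endpoint recorded as highest concentration tested. Abbreviation: GI50, concentration required for 50% inhibition of growth.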 Activity calls are given as the source filed them. Rule as the data show it: active = GI50 up to about 1.1 µM and inactive = higher.

In the case of `CSC(C1c2ccccc2N(c2ccc(C)cc2)c2[nH]c(=O)n(C)c(=O)c21)S(=O)(=O)c1ccc(C)cc1` (stereo not given), the GI50 in [1] was > 100 µM (inactive); in assay [2] it was > 100 µM (inactive); in assay [3] it was 71.6 µM (inactive); in [4], > 100 µM (inactive); in assay [5] it was 43.5 µM (inactive); in assay [6] it was > 100 µM (inactive). Moreover, the GI50 in [7], in assay [8], in [9], in assay [10], in assay [11] and in assay [12] was > 100 µM (inactive) throughout. The GI50 was 97.1 µM (inactive) in assay [13]; > 100 µM (inactive) in [14]; > 100 µM (inactive) in assay [15]; > 100 µM (inactive) in assay [16]; > 100 µM (inactive) in [17].
Regarding `C[N+]1(CCNP(=S)(NCC[N+]2(C)Cc3c(ccc4c3OCO4)C3C2c2cc4c(cc2C[C@@H]3O)OCO4)NCC[N+]2(C)Cc3c(ccc4c3OCO4)C3C2c2cc4c(cc2C[C@@H]3O)OCO4)Cc2c(ccc3c2OCO3)C2C1c1cc3c(cc1C[C@H]2O)OCO3` (stereo not given in full), the GI50 in [1] is < 0.00191 µM (active); in assay [18] it was < 0.00191 µM (active); in assay [2] it was 13.2 µM (inactive); in assay [3] it was 1.27 µM (inactive); in assay [4] it was < 0.00191 µM (active); in [5] it was < 0.00191 µM (active). Further, the GI50 in assay [6], in assay [7], in assay [8], in [9], in assay [10] and in [11] was < 0.00191 µM (active) throughout. The GI50 in [12], in assay [13], in [14], in [15], in assay [16] and in [17] was < 0.00191 µM (active) each time.
For `CN(C)CCNC(=O)c1cccc2c(Nc3ccc(S(N)(=O)=O)cc3)c3ccccc3nc12`, the GI50 in assay [1] is 1.09 µM (active); in assay [18], 1.47 µM (inactive); in assay [2], 3.25 µM (inactive); in assay [4] it was 0.356 µM (active); in assay [5] it was 0.228 µM (active); in assay [6], 3.1 µM (inactive). Besides, the GI50 in assay [7] is 1.32 µM (inactive); in assay [8] it was 2.18 µM (inactive); in [9], 0.509 µM (active); in [10], 0.531 µM (active); in assay [11] it was 1.69 µM (inactive); in assay [12] it was 2.32 µM (inactive). Besides, the GI50 is 7.08 µM (inactive) in assay [13]; 0.536 µM (active) in assay [14]; 1.57 µM (inactive) in [15]; 0.656 µM (active) in assay [16]; 1.02 µM (active) in assay [17].
In the case of `CCCCCCCCCCCCCCCCCC(CCCCCCCCCCCCCCCCC)OP(=O)(O)O`, the GI50 in [1], in assay [18], in assay [2], in assay [3], in [4] and in assay [5] was > 100 µM (inactive) in each case. Further, the GI50 in [7], in assay [8], in [9], in [10], in [11] and in assay [12] was > 100 µM (inactive) in each case. In addition, the GI50 in assay [13], in assay [15], in [16] and in [17] was > 100 µM (inactive) in each case.
As for `COc1ccc(CNc2nc3ccc(C(F)(F)F)cc3nc2-c2ccccc2)cc1OC`, the GI50 was > 10 µM (inactive) in [1]; 27.7 µM (inactive) in [18]; 9.91 µM (inactive) in [3]; 20.7 µM (inactive) in assay [4]; 6.98 µM (inactive) in [5]; > 100 µM (inactive) in [6]. The GI50 in assay [7] is 2.9 µM (inactive); in [10] it was 36.8 µM (inactive); in [11], 60.8 µM (inactive); in [12], > 100 µM (inactive); in [13], 35.9 µM (inactive); in [14], 54.3 µM (inactive). Further, the GI50 was > 100 µM (inactive) in [15], 46.2 µM (inactive) in assay [16] and > 100 µM (inactive) in assay [17].
In the case of `Cc1cc(NCCCCCCNc2cc(C)nc3cc(N(C)C)ccc23)c2ccc(N(C)C)cc2n1`, the GI50 in assay [1] is 52.4 µM (inactive); in [18], 99.8 µM (inactive); in [2] it was 55.8 µM (inactive); in [3], 22.3 µM (inactive); in assay [4], 10.7 µM (inactive); in [5], 3.19 µM (inactive). Besides, the GI50 in [6] was 54.2 µM (inactive); in assay [9], 3.97 µM (inactive); in assay [11] it was 57.1 µM (inactive); in assay [12], 22.4 µM (inactive); in [14], 59.6 µM (inactive); in assay [15], 29.2 µM (inactive). In addition, the GI50 in [16] was 6 µM (inactive); in assay [17], 28.2 µM (inactive).
Take `CC(=O)C1=C(O)C2C3c4c[nH]c5cccc(c45)CC3C(C)(C)N2C1=O` (stereo not given): the GI50 in assay [1] is 19.3 µM (inactive); in assay [18], 28.2 µM (inactive); in assay [2] it was > 100 µM (inactive); in assay [3], 27.2 µM (inactive); in assay [5], 3.05 µM (inactive); in assay [6], 6.46 µM (inactive). Further, the GI50 in assay [7] was > 100 µM (inactive); in assay [8] it was > 100 µM (inactive); in assay [9], 45.7 µM (inactive); in assay [10], 16.2 µM (inactive); in [11] it was 23.1 µM (inactive); in assay [12], 16.6 µM (inactive). The GI50 in assay [13] was 4.85 µM (inactive); in [14] it was 15.6 µM (inactive); in [15] it was 21.6 µM (inactive); in [17], 17.1 µM (inactive).
Regarding `CC1=CC[C@@H](C(C)(C)O)C[C@@H]1O`, the GI50 in [1] was > 5000 µM (inactive); in [18] it was > 5000 µM (inactive); in [3] it was > 5000 µM (inactive); in [4], > 5000 µM (inactive); in assay [5] it was 3940 µM (inactive); in [6], > 5000 µM (inactive). The GI50 in assay [7], in assay [8], in assay [9], in assay [10], in assay [11] and in assay [12] was > 5000 µM (inactive) in each case. Moreover, the GI50 in assay [14], in [15], in assay [16] and in [17] was > 5000 µM (inactive) in each case.
As to `O=C(/C=C/c1ccccc1)CC(=O)CCC(=O)Nc1ccc(Cl)cc1`, the GI50 is > 100 µM (inactive) in assay [1]; 23.6 µM (inactive) in [18]; 57.8 µM (inactive) in assay [2]; > 100 µM (inactive) in assay [3]; 37.8 µM (inactive) in [4]; > 100 µM (inactive) in assay [5]. In addition, the GI50 was 29.6 µM (inactive) in assay [6]; 86.1 µM (inactive) in assay [8]; 5.58 µM (inactive) in [9]; 39.2 µM (inactive) in assay [10]; > 100 µM (inactive) in [11]; > 100 µM (inactive) in assay [12]. In addition, the GI50 in [13], in assay [14], in assay [16] and in [17] was > 100 µM (inactive) throughout.
For the compound `COC(=O)c1cc2ccccc2c2nc3ccccc3c(Cl)c12`, the GI50 in [1] was > 100 µM (inactive); in assay [18], > 100 µM (inactive); in assay [2] it was > 100 µM (inactive); in assay [3] it was > 100 µM (inactive); in [4] it was 87.1 µM (inactive); in [5], > 100 µM (inactive). Further, the GI50 in assay [6], in [7], in [8], in assay [9], in [10] and in assay [11] was > 100 µM (inactive) each time. For the same compound, the GI50 in assay [13] was > 100 µM (inactive); in assay [14], 16.6 µM (inactive); in [15] it was > 100 µM (inactive); in assay [16], > 100 µM (inactive); in assay [17], > 100 µM (inactive).
For `O=C1C(Cl)C(c2cccc([N+](=O)[O-])c2)N1n1cnc2ccccc2c1=O` (stereo not given), the GI50 is > 100 µM (inactive) in [1]; > 100 µM (inactive) in [18]; 91.2 µM (inactive) in assay [2]; > 10 µM (inactive) in [3]; 37.8 µM (inactive) in assay [4]; 57 µM (inactive) in assay [5]. The GI50 in assay [6] is > 100 µM (inactive); in assay [8] it was > 100 µM (inactive); in assay [9], 49.7 µM (inactive); in assay [10], > 100 µM (inactive); in assay [11], 78.7 µM (inactive); in assay [12] it was 58.5 µM (inactive). For the same compound, the GI50 in assay [13] is 42.3 µM (inactive); in assay [15], > 100 µM (inactive); in assay [16] it was > 100 µM (inactive); in [17], > 100 µM (inactive).
On to `[O-]c1c2c(nn1-c1ccccc1)c1ccccc1c[n+]2Cc1ccccc1`, for which the GI50 in assay [1], in assay [18], in [3], in [4], in [5] and in [6] was > 100 µM (inactive) in each case. Besides, the GI50 in assay [7], in [8], in assay [9], in assay [10], in [11] and in [12] was > 100 µM (inactive) throughout. Moreover, the GI50 in assay [13], in assay [14], in assay [15], in [16] and in [17] was > 100 µM (inactive) each time.

(Values after ChEMBL document CHEMBL1201862, “PubChem BioAssay data set” (2004).)
